As a reminder, the Kd is the constant that tells how readily two partners part at equilibrium. The Km is the substrate concentration at which the rate is half of its maximum. By Vmax is commonly meant the rate approached at saturating substrate.

In series [1] the target is T1, NadRLl (Lactococcus lactis, UniProt Q9CE60).
T1 construct: gene nadR; NMNAT domain residues 8-177, RNK domain residues 178-379
T1 sequence (Q9CE60 1-379): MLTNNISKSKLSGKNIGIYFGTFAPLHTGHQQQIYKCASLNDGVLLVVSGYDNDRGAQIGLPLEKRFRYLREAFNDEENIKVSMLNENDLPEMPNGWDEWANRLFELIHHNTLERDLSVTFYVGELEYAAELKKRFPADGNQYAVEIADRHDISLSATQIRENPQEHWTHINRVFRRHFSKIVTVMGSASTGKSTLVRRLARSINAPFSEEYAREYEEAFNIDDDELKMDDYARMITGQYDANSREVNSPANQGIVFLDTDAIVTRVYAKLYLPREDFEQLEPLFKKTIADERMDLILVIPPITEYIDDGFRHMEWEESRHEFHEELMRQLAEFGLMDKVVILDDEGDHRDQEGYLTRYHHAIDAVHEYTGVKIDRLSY
Nature of the series: X-ray crystal structure, […] Å. It counts as binding. The note with it: co-crystallised with 5 mM NAD and 5 mM Mg-AMP-PNP, not the active sites.

The target of series [2] is T1, NadRLl. Nature of the series: isothermal titration calorimetry. The conditions noted are these: read-out: Dissociation Constant-KD. Type of series: binding. The text has this: isothermal titration calorimetry on NadRLl
Series [3] has as its target T1, NadRLl. Briefly: LDH-coupled NADH absorbance at […] nm (NR to NAD). The note with it: substrate inhibition; 10 mM Mg-ATP; 100 mM Tris/HCl pH 7.5; 25 °C. It counts as biochemical.
Series [4] concerns the target T1, NadRLl. Briefly: X-ray crystal structure, […] Å. It counts as binding. The conditions noted are these: 5 mM NR, pH 6.5; site between the two domains, not the active sites.
Series [5] addresses T1, NadRLl. Nature of the series: X-ray crystal structure, […] Å. Type of series: binding. The note with it: 5 mM NMN, pH 6.5; site between the two domains, not the active sites.
For series [6], the target named is T1, NadRLl. Briefly: LDH-coupled NADH absorbance at […] nm (NMN to NAD). Type of series: biochemical. The conditions noted are these: substrate inhibition; 10 mM Mg-ATP; 100 mM Tris/HCl pH 7.5; 25 °C.
Substrate in series [7]: NC(=O)c1ccc[n+]([C@@H]2O[C@H](CO)[C@@H](O)[C@H]2O)c1
Briefly: purified protein. Type of series: biochemical, Lactococcus lactis. The note with it: 10 mM Mg-ATP, 100 mM Tris/HCl pH 7.5, 25 °C, substrate-inhibition model.

Substrate in series [8]: NC(=O)c1ccc[n+]([C@@H]2O[C@H](COP(=O)([O-])O)[C@@H](O)[C@H]2O)c1
Nature of the series: purified protein. Type of series: biochemical, Lactococcus lactis. The conditions noted are these: 10 mM Mg-ATP, 100 mM Tris/HCl pH 7.5, 25 °C, substrate-inhibition model.

Substrate in series [9]: Nc1ncnc2c1ncn2[C@@H]1O[C@H](COP(=O)(O)OP(=O)(O)OP(=O)(O)O)[C@@H](O)[C@H]1O
Briefly: purified protein. The conditions noted are these: 1 mM NMN, 100 mM Tris/HCl pH 7.5, 25 °C, Mg-ATP, Hill coefficient 2.2 ± 0.3. It counts as biochemical, Lactococcus lactis.

For the molecule `NC(=O)c1ccc[n+]([C@@H]2O[C@H](COP(=O)(O)OP(=O)(O)OC[C@H]3O[C@@H](n4cnc5c(N)ncnc54)[C@H](O)[C@@H]3O)[C@@H](O)[C@H]2O)c1` [NAD], the “X-ray crystal structure, 3.00 Å” value in [1] (mixture with AMP-PNP at site between the two domains) was “we observed a mixture of NAD and AMP-PNP bound at this location”.
For the molecule `Nc1ncnc2c1ncn2[C@@H]1O[C@H](COP(=O)(O)OP(=O)(O)NP(=O)(O)O)[C@@H](O)[C@H]1O` [AMP-PNP], the equilibrium dissociation constant (Kd) in series [2] stood at 13 ± 1 µM. Further, in [1] (mixture with NAD at site between the two domains), the “X-ray crystal structure, 3.00 Å” value was “we observed a mixture of NAD and AMP-PNP bound at this location”.
With `Nc1ncnc2c1ncn2[C@@H]1O[C@H](COP(=O)(O)OP(=O)(O)OP(=O)(O)O)[C@@H](O)[C@H]1O` [ATP], the Kd in series [2] stood at 63 ± 1 µM.
On to `NC(=O)c1ccc[n+]([C@@H]2O[C@H](CO)[C@@H](O)[C@H]2O)c1` [nicotinamide riboside], for which the “Ki” value in [3] came out at 31400 ± 8100 µM. The “X-ray crystal structure, 2.30 Å” value in [4] was “we obtained structures in the presence of NMN and NR, which both have bound substrates”.
In the case of `NC(=O)c1ccc[n+]([C@@H]2O[C@H](COP(=O)([O-])O)[C@@H](O)[C@H]2O)c1` [nicotinamide mononucleotide], the “X-ray crystal structure, 2.70 Å” value in [5] is “we obtained structures in the presence of NMN and NR, which both have bound substrates”. In addition, the “Ki” value in series [6] came out at 25400 ± 10800 µM.

B1: NadRLl (Lactococcus lactis subsp. lactis Il1403) (protein)
chain: MLTNNISKSKLSGKNIGIYFGTFAPLHTGHQQQIYKCASLNDGVLLVVSGYDNDRGAQIGLPLEKRFRYLREAFNDEENIKVSMLNENDLPEMPNGWDEWANRLFELIHHNTLERDLSVTFYVGELEYAAELKKRFPADGNQYAVEIADRHDISLSATQIRENPQEHWTHINRVFRRHFSKIVTVMGSASTGKSTLVRRLARSINAPFSEEYAREYEEAFNIDDDELKMDDYARMITGQYDANSREVNSPANQGIVFLDTDAIVTRVYAKLYLPREDFEQLEPLFKKTIADERMDLILVIPPITEYIDDGFRHMEWEESRHEFHEELMRQLAEFGLMDKVVILDDEGDHRDQEGYLTRYHHAIDAVHEYTGVKIDRLSY
notes: NMNAT domain residues 8-177, RNK domain residues 178-379
With B1, the Km in series [7] worked out at 600 ± 100 µM; in series [8] it was 500 ± 100 µM. The Vmax in series [7] turned out to be 0.4 µmol/min/mg; in series [8], 1.5 µmol/min/mg; in series [9], 1.2 µmol/min/mg. In series [9], the K0.5 came out at 5.2 ± 0.6 mM.

The values are drawn from PMC7221760, “Structural and Functional Characterization of NadR from Lactococcus lactis” (Molecules, 2020).
